According to patent US20210068395A1, “METHODS OF APPLYING ONE OR MORE CERTAIN HETEROARYL-1,2,4-TRIAZOLE AND HETEROARYL-TETRAZOLE COMPOUNDS TO CONTROL DAMAGE ON PLANTS, PROPAGATION MATERIAL THEREOF, AND PLANT DERIVED PRODUCTS” (SYNGENTA CROP PROTECTION AG, priority 2018, published 2021):

Legend:
Type in all cases: in vivo
[1] = test system: Chrysodeixis includens (Soybean Looper); assay: Chrysodeixis includens larvicide, feeding/contact; settings: 120 h, test rate 50 ppm, L2 larvae on soybean leaves, 5 days after infestation, read-out: control in at least one of the two categories (mortality or growth inhibition)
Experimental: Soybean plants were treated in a spray chamber, cut off and placed into petri dishes containing wet filter paper. 1 d after application leaves were infested with 5 L2 larvae and covered with a fabric filter and plastic lids. 5 days after infestation the samples were assessed for mortality and growth inhibition.

[2] = test system: Diabrotica balteata (corn root worm); assay: Diabrotica balteata (corn root worm), sprayed maize sprouts; settings: 96 h, application rate 200 ppm, L2 larvae, 4 days after infestation, read-out: control in at least one of the two categories (mortality or growth inhibition)
Experimental: Maize sprouts placed onto an agar layer in 24-well microtiter plates were treated with aqueous test solutions prepared from 10,000 ppm DMSO stock solutions by spraying. After drying, the plates were infested with L2 larvae (6 to 8 per well). The samples were assessed for mortality and growth inhibition in comparison to untreated samples 4 days after infestation.

[3] = test system: Myzus persicae (Green Peach Aphid); assay: Myzus persicae feeding activity (sucrose solution, Parafilm); settings: 120 h, test rate 12.5 ppm, in sucrose solution, 5 days after infestation
Experimental: Test compounds prepared from 10,000 ppm DMSO stock solutions were applied by pipette into 24-well microtiter plates and mixed with sucrose solution. The plates were closed with a stretched Parafilm. A plastic stencil with 24 holes was placed onto the plate and infested pea seedlings were placed directly on the Parafilm. The infested plate was closed with a gel blotting paper and another plastic stencil and then turned upside down. The samples were assessed for mortality 5 days after infestation.

[4] = test system: Myzus persicae (Green Peach Aphid); assay: Myzus persicae systemic activity; settings: 144 h, test rate 24 ppm, roots of pea seedlings in test solution, 6 days
Experimental: Roots of pea seedlings infested with an aphid population of mixed ages were placed directly into aqueous test solutions prepared from 10,000 DMSO stock solutions. The samples were assessed for mortality 6 days after placing seedlings into test solutions.

[5] = test system: Spodoptera littoralis (Egyptian Cotton Leaf Worm); assay: Spodoptera littoralis systemic activity (lettuce); settings: 144 h, test rate 12.5 ppm, root uptake in lettuce, 6 days after infestation, read-out: control in at least one of the three categories (mortality or growth inhibition or anti-feeding)
Text: Test compounds were applied by pipette prepared from 10,000 ppm DMSO stock solutions into 24-well plates and mixed with agar. Lettuce seeds were placed onto the agar and the multi well plate was closed by another plate which contained also agar. After 7 days the compound was absorbed by the roots and the lettuce grew into the lid plate. The lettuce leaves were then cut off into the lid plate. Spodoptera eggs were pipetted through a plastic stencil onto a humid gel blotting paper and the lid plate was closed with it. The samples were assessed for mortality, anti-feeding and growth inhibition 6 days after infestation.

[6] = test system: Plutella xylostella (Diamond Back Moth); assay: Plutella xylostella feeding/contact activity, 24-well artificial diet; settings: 192 h, application rate 200 ppm, 24-well artificial diet, 8 days after infestation, read-out: control in at least one of the two categories (mortality or growth inhibition)
Experimental: 24-well microtiter plates with artificial diet were treated with aqueous test solutions prepared from 10,000 ppm DMSO stock solutions by pipetting. After drying, Plutella eggs were pipetted through a plastic stencil onto a gel blotting paper and the plate was closed with it. The samples were assessed for mortality and growth inhibition in comparison to untreated samples 8 days after infestation.

[7] = test system: Plutella xylostella (Diamond Back Moth); assay: Plutella xylostella feeding/contact activity, 96-well artificial diet; settings: 216 h, application rate 500 ppm, 9 days after infestation
Experimental: 1, 2, 3, 4, 17, 19, 23, 26, 39, 41, 42, 54, 55, 56 Plutella xylostella (Diamond Back Moth):Feeding/Contact Activity 96-well microtiter plates containing artificial diet were treated with aqueous test solutions, prepared from 10,000 ppm DMSO stock solutions, by a liquid handling robot. After drying, eggs (˜30 per well) were infested onto a netted lid which was suspended above the diet. The eggs hatch and L1 larvae move down to the diet. The samples were assessed for mortality 9 days after infestation.

[8] = test system: Chilo suppressalis (Striped Stem Borer); assay: Chilo suppressalis larvicide, feeding/contact; settings: 120 h, test rate 200 ppm, L2 larvae on sprayed rice plants, 5 days after application
Experimental: Rice plants were treated in a spray chamber, cut off and placed into petri dishes containing wet filter paper. 10 L2 larvae were infested and covered up with a cotton filter and a lid. 5 days after application samples were assessed for mortality.

[9] = test system: Carpocapsa (Cydia) Pomonella (Codling Moth); assay: Carpocapsa (Cydia) pomonella larvicide, feeding/contact; settings: 336 h, test rate 50 ppm, L1 larvae on diet cubes, 14 days after infestation, read-out: control in at least one of the two categories (mortality or growth inhibition)
Experimental: Diet cubes coated with paraffin were sprayed with diluted test solutions in an application chamber. After drying off the treated cubes (10 replicates) were infested with 1 L1 larvae. Samples were incubated at 26-27° C. and checked 14 days after infestation for mortality and growth inhibition.

[10] = test system: Thrips tabaci (Onion thrips); assay: Thrips tabaci feeding/contact activity; settings: foliar, 144 h, application rate 200 ppm, sunflower leaf discs, 6 days after infestation, read-out: control in at least one of the two categories (mortality or anti-feeding)
Experimental: Sunflower leaf discs were placed on agar in 24-well microtiter plates and sprayed with aqueous test solutions prepared from 10,000 ppm DMSO stock solutions. After drying the leaf discs were infested with a thrips population of mixed ages. The samples were assessed for mortality, and anti-feeding 6 days after infestation.

[11] = test system: Myzus persicae (Green Peach Aphid); assay: Myzus persicae feeding/contact activity; settings: foliar, 144 h, application rate 200 ppm, sunflower leaf discs sprayed, 6 days after infestation
Experimental: Sunflower leaf discs were placed onto agar in a 24-well microtiter plate and sprayed with aqueous test solutions prepared from 10,000 ppm DMSO stock solutions. After drying, the leaf discs were infested with an aphid population of mixed ages. The samples were assessed for mortality 6 days after infestation.

[12] = test system: Spodoptera littoralis (Egyptian Cotton Leaf Worm); assay: Spodoptera littoralis feeding/contact activity; settings: foliar, 72 h, application rate 200 ppm, L1 larvae on cotton leaf discs, 3 days after infestation, read-out: control in at least one of the three categories (mortality or growth inhibition or anti-feeding)
Experimental: Cotton leaf discs were placed onto agar in 24-well microtiter plates and sprayed with aqueous test solutions prepared from 10,000 ppm DMSO stock solutions. After drying the leaf discs were infested with five L1 larvae. The samples were assessed for mortality, anti-feeding and growth inhibition 3 days after infestation.

[13] = test system: Euschistus heros (Neotropical Brown Stink Bug); assay: Euschistus heros feeding/contact activity; settings: 120 h, application rate 200 ppm, N2 nymphs on soybean leaves, 5 days after infestation, read-out: control in at least one of the two categories (mortality or growth inhibition)
Experimental: Soybean leaves on agar in 24-well microtiter plates were sprayed with aqueous test solutions prepared from 10,000 ppm DMSO stock solutions. After drying the leaves were infested with N2 nymphs. The samples were assessed for mortality and growth inhibition 5 days after infestation.

[14] = test system: Nilaparvata lugens (Brown Plant Hopper); assay: Nilaparvata lugens larvicide, feeding/contact; settings: 168 h, test rate 200 ppm, N3 nymphs on sprayed rice plants, 7 days after treatment, read-out: control in at least one of the two categories (mortality or growth inhibition)
Experimental: Rice plants were treated with the diluted test solutions in a spray chamber. After drying plants were infested with ˜20 N3 nymphs. 7 days after the treatment samples were assessed for mortality and growth inhibition.

[15] = test system: Nilaparvata lugens (Brown Plant Hopper); assay: Nilaparvata lugens larvicide, systemic into water; settings: 168 h, test rate 12.5 ppm, into nutritive solution of rice plants, N3 nymphs, 7 days after infestation, read-out: control in at least one of the two categories (mortality or growth inhibition)
Experimental: Rice plants cultivated in a nutritive solution were treated with the diluted test solutions into nourishing cultivation system. 1 day after application plants were infested with ˜20 N3 nymphs. 7 days after infestation samples were assessed for mortality and growth inhibition.

C[C@H](NC(=O)c1cc(C(F)(F)F)cc(C(F)(F)F)c1)c1ncnn1-c1ncccn1 [Compound 17]
≥ 80%: percent control (mortality or growth inhibition) at 50 ppm [1] | percent control (mortality or growth inhibition) at 200 ppm [2] | mortality at 12.5 ppm [3] | mortality at 24 ppm [4] | percent control (mortality, anti-feedant effect or growth inhibition) at 12.5 ppm [5] | percent control (mortality or growth inhibition) at 200 ppm [6] | mortality at 500 ppm [7] | mortality at 200 ppm [8] | percent control (mortality or growth inhibition) at 50 ppm [9] | percent control (mortality, anti-feedant effect or growth inhibition) at 200 ppm [10] | mortality at 200 ppm [11] | percent control (mortality, anti-feedant effect or growth inhibition) at 200 ppm [12] | percent control (mortality or growth inhibition) at 200 ppm [13]

CC(c1ncnn1-c1ncccn1)N(CC1CC1)C(=O)c1cc(Cl)cc(OC(F)(F)F)c1 (stereo not shown) [Compound 26]
≥ 80%: percent control (mortality or growth inhibition) at 50 ppm [1] | percent control (mortality or growth inhibition) at 200 ppm [14] | percent control (mortality or growth inhibition) at 200 ppm [2] | mortality at 12.5 ppm [3] | percent control (mortality, anti-feedant effect or growth inhibition) at 12.5 ppm [5] | percent control (mortality or growth inhibition) at 200 ppm [6] | mortality at 500 ppm [7] | mortality at 200 ppm [8] | percent control (mortality or growth inhibition) at 50 ppm [9] | mortality at 200 ppm [11] | percent control (mortality, anti-feedant effect or growth inhibition) at 200 ppm [12] | percent control (mortality or growth inhibition) at 12.5 ppm [15]

CCN(C(=O)c1cc(C(F)(F)F)cc(C(F)(F)F)c1)C(C)c1ncnn1-c1ncccn1 (stereo not shown) [Compound 39]
≥ 80%: percent control (mortality or growth inhibition) at 50 ppm [1] | percent control (mortality or growth inhibition) at 200 ppm [14] | percent control (mortality or growth inhibition) at 200 ppm [2] | mortality at 12.5 ppm [3] | mortality at 24 ppm [4] | percent control (mortality, anti-feedant effect or growth inhibition) at 12.5 ppm [5] | percent control (mortality or growth inhibition) at 200 ppm [6] | mortality at 500 ppm [7] | mortality at 200 ppm [8] | percent control (mortality or growth inhibition) at 50 ppm [9] | percent control (mortality, anti-feedant effect or growth inhibition) at 200 ppm [10] | mortality at 200 ppm [11] | percent control (mortality, anti-feedant effect or growth inhibition) at 200 ppm [12] | percent control (mortality or growth inhibition) at 200 ppm [13] | percent control (mortality or growth inhibition) at 12.5 ppm [15]

CC(c1ncnn1-c1ccccn1)N(CC1CC1)C(=O)c1cc(C(F)(F)F)cc(C(F)(F)F)c1 (stereo not shown) [Compound 74]
≥ 80%: percent control (mortality or growth inhibition) at 50 ppm [1] | percent control (mortality or growth inhibition) at 200 ppm [2] | percent control (mortality, anti-feedant effect or growth inhibition) at 12.5 ppm [5] | percent control (mortality or growth inhibition) at 200 ppm [6] | mortality at 500 ppm [7] | mortality at 200 ppm [8] | percent control (mortality or growth inhibition) at 50 ppm [9] | percent control (mortality, anti-feedant effect or growth inhibition) at 200 ppm [12] | percent control (mortality or growth inhibition) at 12.5 ppm [15]
